Source: patent US10981906B2, “Substituted pyrrolopyridine JAK inhibitors and methods of making and using the same” (ACLARIS THERAPEUTICS, INC., priority 2017, dated 2021)
pIC50: −log10 of the molar value.

Key:
[1] = test system: IL-2 stimulated STAT5 phosphorylation on Tyr694 (JAK1/3); assay: JAK1/3 cellular target modulation: IL-2 stimulated phospho-STAT5 in PBMC; assay type: cell-based; settings: Homo sapiens, PBMC, IL-2 25 ng/ml, 1 hour compound preincubation, read-out: IL2-STAT5 Inhibition IC50
In short: (§1)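 Thawed human PBMC (200,000/well) in complete RPMI/10% FBS preincubated with compound 1 h at 37 °C, then stimulated with IL-2 25 ng/ml for 5 min (pSTAT5 Tyr694) or IFNγ 10 ng/ml for 10 min (pSTAT1 Tyr701). Cells lysed; pSTAT5 by MSD Tyr694/total STAT5a,b assay, pSTAT1 by sandwich ELISA.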

[2] = test system: IFNγ stimulated STAT1 phosphorylation on Tyr701 (JAK1/2); assay: JAK1/2 cellular target modulation: IFNγ stimulated phospho-STAT1 in PBMC; assay type: cell-based; settings: Homo sapiens, PBMC, IFNγ 10 ng/ml, 1 hour compound preincubation, read-out: Infγ-STAT1 IC50
In short: as §1

[3] = target: JAK3 (a.a. 781-1124) (Homo sapiens (Human), UniProt P52333); assay: JAK3 enzyme activity assay (SRCtide phosphorylation, Caliper); assay type: biochemical; settings: 2.5 nM JAK3, 1 μM SRCtide, 1 uM ATP, 40 minutes; read-out: JAK3 Inhibition IC50
In short: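 2.5 nM JAK3 kinase domain with 1 μM FAM-SRCtide and 1 μM ATP in 20 mM HEPES pH 7.5, 10 mM MgCl2, 2% DMSO, 40 min at room temperature, EDTA stop. Phospho/unphospho peptide separated by mobility shift; 11-point 3-fold series in duplicate, 4-parameter logistic IC50.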

[4] = target: JAK1 (Homo sapiens (Human), UniProt P23458); assay: JAK1 enzyme activity assay (Thermo Fisher SelectScreen Z-lyte); assay type: biochemical; settings: 1 hour kinase reaction, read-out: JAK1 Inhibition IC50
In short: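 Z-lyte FRET assay with 21.2-91.5 ng JAK1 and 2 μM Tyr 06 peptide in 50 mM HEPES pH 7.0 with 10 mM MgCl2, reacted 1 hour before development reagent. Compounds tested in an 11-point dose-response from […] to 0.34 nM. IC50 from 4-parameter logistic fit of emission ratio.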

JAK3 (a.a. 781-1124), sequence (P52333 781-1124): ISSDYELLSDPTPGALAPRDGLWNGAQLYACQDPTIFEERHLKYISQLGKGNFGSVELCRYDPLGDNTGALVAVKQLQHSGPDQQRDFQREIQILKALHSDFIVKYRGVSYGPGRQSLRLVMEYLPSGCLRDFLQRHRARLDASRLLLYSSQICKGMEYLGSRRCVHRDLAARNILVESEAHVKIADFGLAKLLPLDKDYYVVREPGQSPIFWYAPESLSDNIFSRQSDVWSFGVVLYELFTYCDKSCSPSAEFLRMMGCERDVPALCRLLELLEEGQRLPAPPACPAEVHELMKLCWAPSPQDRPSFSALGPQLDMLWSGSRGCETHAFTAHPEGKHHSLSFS
JAK1, sequence (P23458 whole entry): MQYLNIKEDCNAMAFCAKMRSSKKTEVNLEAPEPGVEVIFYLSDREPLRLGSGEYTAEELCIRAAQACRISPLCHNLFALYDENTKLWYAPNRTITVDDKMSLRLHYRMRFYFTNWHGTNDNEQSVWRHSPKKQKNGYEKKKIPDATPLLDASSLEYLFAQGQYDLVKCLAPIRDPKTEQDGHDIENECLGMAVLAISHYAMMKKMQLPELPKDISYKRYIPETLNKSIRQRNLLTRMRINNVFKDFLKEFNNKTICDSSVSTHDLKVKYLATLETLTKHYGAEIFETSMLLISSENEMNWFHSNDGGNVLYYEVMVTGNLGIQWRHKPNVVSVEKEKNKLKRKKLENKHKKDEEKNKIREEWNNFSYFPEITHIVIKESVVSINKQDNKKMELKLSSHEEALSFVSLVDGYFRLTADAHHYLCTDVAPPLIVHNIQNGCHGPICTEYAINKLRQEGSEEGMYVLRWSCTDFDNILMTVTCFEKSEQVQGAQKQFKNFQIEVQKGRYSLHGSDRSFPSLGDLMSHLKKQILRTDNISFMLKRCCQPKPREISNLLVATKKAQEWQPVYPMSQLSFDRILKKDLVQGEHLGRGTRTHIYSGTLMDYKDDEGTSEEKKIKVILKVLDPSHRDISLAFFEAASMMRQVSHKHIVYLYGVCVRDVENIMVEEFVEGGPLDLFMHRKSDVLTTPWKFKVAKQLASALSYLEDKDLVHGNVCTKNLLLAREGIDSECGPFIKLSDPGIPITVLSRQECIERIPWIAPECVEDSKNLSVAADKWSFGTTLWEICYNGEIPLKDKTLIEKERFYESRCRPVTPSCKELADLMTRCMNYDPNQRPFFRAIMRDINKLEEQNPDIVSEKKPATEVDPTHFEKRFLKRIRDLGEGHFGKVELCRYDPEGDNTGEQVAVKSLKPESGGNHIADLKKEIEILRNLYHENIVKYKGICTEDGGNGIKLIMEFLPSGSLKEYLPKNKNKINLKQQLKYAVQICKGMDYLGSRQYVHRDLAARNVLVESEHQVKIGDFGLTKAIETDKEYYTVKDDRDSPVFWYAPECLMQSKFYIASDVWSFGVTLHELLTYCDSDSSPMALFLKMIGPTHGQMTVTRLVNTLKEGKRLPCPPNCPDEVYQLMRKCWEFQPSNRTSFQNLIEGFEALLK

Row | pIC50 [1] | pIC50 [2] | pIC50 [3] | pIC50 [4] | Structure (SMILES)
1 | ≥ 7.00 | ≥ 7.00 | ≥ 8.00 | ≥ 8.00 | CCOC(=O)c1cnc2[nH]ccc2c1N[C@@H]1CC[C@H](C)N(C(=O)CC#N)C1 [Example 146, ethyl 4-(((3R,6S)-1-(2-cyanoacetyl)-6-methylpiperidin-3-yl)amino)-1H-pyrrolo[2,3-b]pyridine-5-carboxylate]
2 | 6.00 to 7.00 | < 6.00 | 6.00 to 7.00 | 6.00 to 7.00 | N#CCC[C@H]1CCC[C@H](Nc2c(C(=O)O)cnc3[nH]ccc23)C1 [Example 147, 4-(((1S,3R)-3-(2-cyanoethyl)cyclohexyl)amino)-1H-pyrrolo[2,3-b]pyridine-5-carboxylic acid]
